Laboratory results from patent US4018801A, “Substituted oxirane compounds” (The Dow Chemical Company, priority 1975, dated 1977).

Key:
Type in all cases: in vivo
[1] = tested on: Cultured Rice; experiment: Pre-emergent control of seed germination, soil drench; conditions: about 2 weeks
From the text: (§1) Four parts by weight of the compound, 0.08 part of sorbitan trioleate (Span 85), and 0.02 part of a sorbitan monooleate polyoxyethylene derivative (Tween 80) are dipersed in 40 milliliters of acetone to produce a concentrate composition in the form of a water-dispersible liquid containing the predetermined oxirane compound as the sole active agent.
(§2) A portion of each of these concentrate compositions were separately dispersed in portions of water to provide aqueous compositions, containing 0.44 pound of the oxirane compound per 100 gallons of ultimate aqueous mixture.
(§3) The aqueous compositions were then employed for the treatment of seed beds of good agricultural soil which had been prepared and seeded with the seeds of various grass species and broadleaf plants. The grass species included white winter wheat, cultured rice, pigweeds, crabgrass, cheat grass, wild oats, Johnson grass, barnyard grass and yellow foxtail; and the broadleaf plants included corn. In the treating operations, a predetermined quantity of each of the compositions was applied to separate seedbeds as a soil drench at a rate of about 0.43 acre inch of aqueous composition per acre. The quantities were controlled to supply a substantial uniform dosage in a seedbed equivalent to 1.0, 2.0 and 5.0 pounds of the oxirane compound per acre. These dosages correspond, respectively, to a concentration, within the soil depth penetrated of about 1.6, 3.2 and 8.0 parts by weight of the oxirane compound per million parts by weight of soil. Other seedbeds were similarly seeded with the named plant species but were left untreated to serve as checks.
(§4) After about 2 weeks the seedbeds were examined to ascertain what control of the growth of seeds had been obtained.
(§5) An aqueous composition containing 2-(α,α,α -trifluoro-m-tolyl)-2-(2,2,2-trichloroethyl)oxirane was prepared as described in Example 32. The composition was then employed according to the procedures of Example 32 except that lower concentrations of the oxirane compound were employed in the composition.
(§6) The percent control of the various plant species at the employed dosage rate of the 2-(α,α,α-trifluoro-m-tolyl)- 2-(2,2,2-trichloroethyl) supplied by the composition is set forth in the following Table IV.

[2] = tested on: White Winter Wheat; experiment: as above; conditions: about 2 weeks
From the text: as §1, §2, §3, §4, §5, §6

[3] = tested on: Corn; experiment: as above; conditions: about 2 weeks
From the text: as §1, §2, §3
After about 2 weeks the seedbeds were examined to ascertain what control of the growth of seeds had been obtained. […]
as §5, §6

[4] = tested on: Water-Grass; experiment: Comparative pre-emergence herbicide test
From the text: as §1, §2, §3, §4
Separate aqueous compositions containing the 2-(m-chlorophenyl)-2-(2,2,2-trichloroethyl)oxirane (Cmpd. A) and 2-(m-bromophenyl)-2-(2,2,2-trichloroethyl)oxirane (Cmpd. C) compounds of the present invention were prepared as in Example 32 for comparative per-emergence herbicide tests against noxious grass species with the known 2 -(p-chlorophenyl)-2-(2,2,2-trichloroethyl)oxirane (Cmpd. B) compound and 2-(p-bromophenyl)-2-(2,2,2-trichloroethyl)oxirane (Cmpd. D). The pre-emergence tests were conducted in Example 32 and the results of such tests are set forth below in Table III.

[5] = tested on: Barnyard Grass; experiment: Post-emergent control, foliage spray; conditions: about two weeks
Method: (§7) An aqueous composition containing 2-(m-bromophenyl)- 2-(2,2,2-trichloroethyl)oxirane was prepared as described in Example 32. Separate portions of this composition were thereafter dispersed in a further quantity of water to prepare aqueous spray compositions containing 250, 500, 1000, 2000 and 4000 parts, respectively of the compound per million parts by weight of ultimate treating composition. These compositions were applied as foliage sprays to various grass and broadleaf plant species, the plants being of two to four inches in height and growing in seed beds. The treatments were carried out with conventional spray equipment, the plants being sprayed to the point of run-off. Similar beds of the plant species were left untreated to serve as checks. After about two weeks, the beds were examined to ascertain what control of the growth of plants had been obtained. The plant species employed, together with the percent control obtained at the employed dosage rate of the composition is set forth in the following Table V.

[6] = tested on: Corn; experiment: Post-emergent control, foliage spray; conditions: about two weeks
Method: as §7

[7] = tested on: Cotton; experiment: Post-emergent control, foliage spray; conditions: about two weeks
Method: as §7

[8] = tested on: Crabgrass; experiment: Post-emergent control, foliage spray; conditions: about two weeks
Method: as §7

[9] = tested on: Cultured Rice; experiment: Post-emergent control, foliage spray; conditions: about two weeks
Method: as §7

[10] = tested on: Johnson Grass; experiment: Post-emergent control, foliage spray; conditions: about two weeks
Method: as §7

[11] = tested on: Pinto Beans; experiment: Post-emergent control, foliage spray; conditions: about two weeks
Method: as §7

[12] = tested on: Soybean; experiment: Post-emergent control, foliage spray; conditions: about two weeks
Method: as §7

[13] = tested on: White Winter Wheat; experiment: Post-emergent control, foliage spray; conditions: about two weeks
Method: as §7

[14] = tested on: Wild Oats; experiment: Post-emergent control, foliage spray; conditions: about two weeks
Method: as §7

[15] = tested on: Yellow Foxtail; experiment: Post-emergent control, foliage spray; conditions: about two weeks
Method: as §7

With `ClC(Cl)(Cl)CC1(c2cccc(Br)c2)CO1` (centres unmarked) [Example 3, 2-(m-bromophenyl)-2-(2,2,2-trichloroethyl)oxirane] the “Percent Pre-Emergent Control of Seed Germination” value (“Percent Pre-Emergent Control” for short) ([1]; 2.0 pounds per surface acre) was 100%, the “Percent Pre-Emergent Control” value ([1]; 5.0 pounds per surface acre) was 100% and the “Percent Pre-Emergent Control” value ([2]; 1.0 pounds per surface acre) was 100%. The “Percent Pre-Emergent Control” value ([2]; 2.0 pounds per surface acre) was 100%, the “Percent Pre-Emergent Control” value ([2]; 5.0 pounds per surface acre) was 100% and the “Percent Pre-Emergent Control” value ([3]; 1.0 pounds per surface acre) was 30%. The “Percent Pre-Emergent Control” value ([3]; 2.0 pounds per surface acre) was 95%, the “Percent Pre-Emergent Control” value ([3]; 5.0 pounds per surface acre) was 95% and the “% Control” value ([4]; 1/8 Lb/Acre) was 95%. For the same molecule, the “% Control” value ([4]; 1/16 Lb/Acre) was 90%, the “Percent Post-Emergent Control of Seed Germination” value (“Percent Post-Emergent Control” below) ([5]; 250 parts per million) was 95% and the “Percent Post-Emergent Control” value ([5]; 500 parts per million) was 95%. For the same molecule, the “Percent Post-Emergent Control” value ([5]; 1000 parts per million) was 95%, the “Percent Post-Emergent Control” value ([5]; 2000 parts per million) was 95% and the “Percent Post-Emergent Control” value ([5]; 4000 parts per million) was 95%. For the same molecule, the “Percent Post-Emergent Control” value ([6]; 250 parts per million) was 0%, the “Percent Post-Emergent Control” value ([6]; 500 parts per million) was 30% and the “Percent Post-Emergent Control” value ([6]; 1000 parts per million) was 50%. The “Percent Post-Emergent Control” value ([6]; 2000 parts per million) was 95%, the “Percent Post-Emergent Control” value ([6]; 4000 parts per million) was 95% and the “Percent Post-Emergent Control” value ([7]; 250 parts per million) was 0%. For the same molecule, the “Percent Post-Emergent Control” value ([7]; 500 parts per million) was 0%, the “Percent Post-Emergent Control” value ([7]; 1000 parts per million) was 50% and the “Percent Post-Emergent Control” value ([7]; 2000 parts per million) was 50%. For the same molecule, the “Percent Post-Emergent Control” value ([7]; 4000 parts per million) was 65%, the “Percent Post-Emergent Control” value ([8]; 250 parts per million) was 30% and the “Percent Post-Emergent Control” value ([8]; 500 parts per million) was 65%. For the same molecule, the “Percent Post-Emergent Control” value ([8]; 1000 parts per million) was 95%, the “Percent Post-Emergent Control” value ([8]; 2000 parts per million) was 95% and the “Percent Post-Emergent Control” value ([8]; 4000 parts per million) was 95%. The “Percent Post-Emergent Control” value ([9]; 250 parts per million) was 0%, the “Percent Post-Emergent Control” value ([9]; 500 parts per million) was 0% and the “Percent Post-Emergent Control” value ([9]; 1000 parts per million) was 0%. The “Percent Post-Emergent Control” value ([9]; 2000 parts per million) was 40%, the “Percent Post-Emergent Control” value ([9]; 4000 parts per million) was 50% and the “Percent Post-Emergent Control” value ([10]; 250 parts per million) was 95%. The “Percent Post-Emergent Control” value ([10]; 500 parts per million) was 95%, the “Percent Post-Emergent Control” value ([10]; 1000 parts per million) was 95% and the “Percent Post-Emergent Control” value ([10]; 2000 parts per million) was 95%. The “Percent Post-Emergent Control” value ([10]; 4000 parts per million) was 95%, the “Percent Post-Emergent Control” value ([11]; 250 parts per million) was 50% and the “Percent Post-Emergent Control” value ([11]; 500 parts per million) was 50%. The “Percent Post-Emergent Control” value ([11]; 1000 parts per million) was 50%, the “Percent Post-Emergent Control” value ([11]; 2000 parts per million) was 75% and the “Percent Post-Emergent Control” value ([11]; 4000 parts per million) was 75%. The “Percent Post-Emergent Control” value ([12]; 250 parts per million) was 30%, the “Percent Post-Emergent Control” value ([12]; 500 parts per million) was 30% and the “Percent Post-Emergent Control” value ([12]; 1000 parts per million) was 50%. The “Percent Post-Emergent Control” value ([12]; 2000 parts per million) was 75%, the “Percent Post-Emergent Control” value ([12]; 4000 parts per million) was 85% and the “Percent Post-Emergent Control” value ([13]; 250 parts per million) was 0%. The “Percent Post-Emergent Control” value ([13]; 500 parts per million) was 0%, the “Percent Post-Emergent Control” value ([13]; 1000 parts per million) was 50% and the “Percent Post-Emergent Control” value ([13]; 2000 parts per million) was 50%. For the same molecule, the “Percent Post-Emergent Control” value ([13]; 4000 parts per million) was 50%, the “Percent Post-Emergent Control” value ([14]; 250 parts per million) was 50% and the “Percent Post-Emergent Control” value ([14]; 500 parts per million) was 70%. For the same molecule, the “Percent Post-Emergent Control” value ([14]; 1000 parts per million) was 85%, the “Percent Post-Emergent Control” value ([14]; 2000 parts per million) was 85% and the “Percent Post-Emergent Control” value ([14]; 4000 parts per million) was 95%. For the same molecule, the “Percent Post-Emergent Control” value ([15]; 250 parts per million) was 40%, the “Percent Post-Emergent Control” value ([15]; 500 parts per million) was 95% and the “Percent Post-Emergent Control” value ([15]; 1000 parts per million) was 95%. For the same molecule, the “Percent Post-Emergent Control” value ([15]; 2000 parts per million) was 95% and the “Percent Post-Emergent Control” value ([15]; 4000 parts per million) was 95%.
